Reference: patent publication US20080214576A1, “Topoisomerase Inhibitors and Prodrugs” (Threshold Pharmaceuticals, Inc., priority 2004, published 2008)
Like-named read-outs stand apart in the source and are kept apart here.

System: H460 cells
Assay: Antiproliferation assay (multi-well Alamar Blue based)
Format: cell-based, human
Procedure: To determine the effect of the compounds of the invention on cell proliferation, the antiproliferative activity of these compounds was tested in a multi-well Alamar Blue based assay (at 2 h and 3 days). Cell growth in the presence and absence of the test compound was compared, as measured by a fluorescence plate reader at excitation 550 nm and emission 590 nm (see Biosource International Inc., Tech Application Notes, Use of Alamar Blue in the measurement of Cell Viability and Toxicity, Determining IC50). […] After 24 hours, these plates were divided into 3 groups—Control group, 2 h treatment group, and 3 day treatment group. A test compound was added to each plate in the treatment groups (2 h and 3 day) at various concentration (in 50 μl of medium). In the 2 h treatment group, after 2 h the cells were rinsed to remove the test compound and incubated for 3 days, followed by staining with AlamarBlue. The cells in the 3 day treatment group were incubated for 3 days, followed by staining with AlamarBlue. In the Control group, AlamarBlue was added to the plate at (i) day 0 and (ii) day 3 and measured to establish the control reading.

GI50 (assay time period not stated) | GI90 (assay time period not stated) | GI90 (3 day treatment, AlamarBlue, GI90 also referred to as IC90) [nM] | GI50 (Homo sapiens, NCI-H460, 72 h, 3 day treatment, AlamarBlue, GI50 also referred to as IC50, read-out: GI50) [nM] | Structure (SMILES)
not determinable | not determinable |  |  | COc1cc2c(cc1OC)-c1nc3cc4c(cc3n1C(CCCN(C)C)N2)OCO4 (stereo not shown) [Compound 7]
 |  | 1000 | 600 | COc1cc2c(cc1OC)n(CCN(C)C)c(=O)n1c3cc4c(cc3nc21)OCO4 [Compound 14]
